# Assays:
# [1] = test system: medial ganglionic eminence (MGE)-derived neural progenitors; assay: HD-DoE stage 4, 12-factor experiment: SOX6 expression; format: cell-based, human; conditions: for impact on expression of SOX6: dynamic profile, in words; for factor contribution, expression of SOX6: significant negative effect, model optimized for maximal SOX6
# [2] = test system: human pluripotent stem cells; assay: HD-DoE stage 1, first 12-factor experiment: gene expression (qPCR) after 3-day treatment; format: cell-based; conditions: for impact on expression of OTX2: dynamic profile / model; for factor contribution, expression of SIX3 / factor contribution, expression of FEZF2: positive impact; for factor contribution, expression of SIX3: model optimized for maximal SIX3, 3-day treatment, qPCR; for factor contribution, expression of FEZF2: model optimized for maximum FEZF2 at 3576
# Excerpt: This example utilizes a method of High-Dimensional Design of Experiments (HD-DoE), as previously described in Bukys et al. (2020) […] 23:101346. The method employs computerized design geometries to simultaneously test multiple process inputs and offers mathematical modeling of a deep effector/response space. The method allows for finding combinatorial signaling inputs that control a complex process, such as during cell differentiation. It allows testing of multiple plausible critical process parameters, as such parameters impact output responses, such as gene expression. Because gene expression provides hallmark features of the phenotype of, for example, a human cell, the method can be applied to identify, and understand, which signaling pathways control cell fate. In the current example, the HD-DOE method was applied with the intent to find conditions for induction of […] neural progenitor-expressed genes, directly from the pluripotent stem cell state. To develop the recipe for each stage, the impact of agonists and antagonists of multiple signaling pathways (herein called effectors) on the expression of two sets of 53 pre-selected genes, after a 3-day treatment, has been tested and modeled. These effectors are small molecules or proteins that are commonly used during stepwise differentiation of stem cells to specific fates. Choice of the effectors were based on current literature on neural induction in forebrain region of developing brain and differentiation of stem cells to neural progenitors. To test the effectors, experiments with at least 8 factors were designed that can assess the response of cells to 48 or more different combinations of effectors in a range of concentrations. To analyze the models, we focused on expression of genes involved in development and patterning of the anterior neuroectoderm and forebrain including OTX2 (Hoch et al. (2015) Cell Reports 12:482-494), SIX3 (Lagutin et al. (2003) Genes & Development 17:368-379) and FEZF2 (Zhang et al. (2014) Development 141:4794-[…]). At later stages we focused on dorsoventral patterning of telencephalon and gene expressed in ventral forebrain including NKX2-1 and absence of PAX6 which is a dorsal forebrain marker (Stoykova et al. (2000) J. Neurosci. 20:8042-8050). The impact of each effector on gene expression level is defined by a parameter called factor contribution that is calculated for each effector during the modeling. To identify the recipe for stage 1 of differentiation, 96 different combinations of effectors generated using Design-of-Experiments compression through D-optimality were robotically prepared. The effector combinations were prepared in a basal media and were subsequently added to the cells, which were then allowed to differentiate. Three days later RNA extraction was performed, and gene expression was obtained using quantitative PCR analysis. The data were normalized and modeled using partial least squares regression analysis to the effector design, resulting in the generation of gene-specific models, which after model tuning for maximal Q2 predictive power, provided explanation of the effectors ability to control the expression of individual genes, combinatorically, and individually. Solutions within the tested space could then be explored to address desirability. Optimizing for maximal expression of SIX3 at 3300 and FEZF2 1355 expression values led to robust solutions. This model was derived from testing 12 effectors including AGN193109, LDN193189, CHIR99021, XAV939, IGF2, Purmorphamine, 4-oxo-RA, TTNPB, SR11237, FGF8, PD0325901 and […]. […] The model was also optimized for maximum expression of FEZF2 separately at 3576 expression value to find any additional factors that can boost expression of forebrain genes. […] To find the set of factors that have the potential to optimize all 3 genes in this experiment, a new assessment was done through dynamic profile analysis with focus on maximal expression of OTX2, FEZF2 and SIX3.
# [3] = dynamic profile analysis, in words
SMILES,impact on expression of SOX6 [1],"factor contribution, expression of SOX6 [1]","factor contribution, important input for high expression of SIX3 ([2]; FIG. 2 legend)",impact on expression of OTX2 ([2]; in words),"factor contribution, expression of OTX2 ([2]; positive effector, model optimized for maximum OTX2 at 6348)","factor contribution, expression of SIX3 [2]","factor contribution, expression of FEZF2 [2]","impact on expression of FEZF2 [2, 3]","impact on expression of SIX3 [2, 3]"
c1ccc2c(-c3cnn4cc(-c5ccc(N6CCNCC6)cc5)cnc34)ccnc2c1 [LDN193189],negative effect,9.8,24.9,positive impact,8,16,25,,
O=C(NOC[C@H](O)CO)c1ccc(F)c(F)c1Nc1ccc(I)cc1F [PD0325901],negative effect,5.1,,positive impact,,,10,,
c1ccc2c(Oc3nc(Nc4ccc(N5CCOCC5)cc4)c4ncn(C5CCCCC5)c4n3)cccc2c1 [Purmorphamine],,,,negative effect,,5,7,positive impact,positive impact

# — US20250092360A1, “METHODS AND COMPOSITIONS FOR GENERATING SOMATOSTATIN+ INTERNEURONS FROM HUMAN FOREBRAIN NEURAL PROGENITOR CELLS” (Trailhead Biosystems Inc., priority 2023, published 2025)
